Data as given in patent US20260151620A1, “IMPLANT MEDICAL DEVICES” (Case Western Reserve University, priority 2021, published 2026).

Assay: In vitro drug release from drug-loaded titania nanotube arrays (TNAs) in PBS at 37° C.
Assay type: physicochemical
Description: A total of 500 μL of DEX solution was pipetted onto the nanotube surface (pipetting 100 μL for 5 times) and allowed to dry in fume hood for an hour, ensuring that the nanotube array surface was completely dry prior to each pipetting and the release studies. Then, DEX-loaded TNA samples were immersed in Eppendorf tubes containing 100 μL of PBS (1× phosphate buffered saline) and were placed in a water bath kept at 37° C. For release measurements, all 100 μL from each releasing sample tube was transferred to a 96-well plate and measured using a SpectraMax M 2 Microplate Reader. The absorption of DEX was measured at 244 nm. After each measurement, the releasing medium was fully replaced with […] of fresh PBS.

[1] = 37° C., TNAs on polyimide and foil substrates
[2] = 37° C., TNAs on polyimide and foil substrates, PBS

burst after contacting the PBS [1] | duration of linear release [2] | release profile [2] | duration of sustained release (TNA 2 micron long, 30 nm pore size, 37° C. (FIG. 6B)) | release profile (37° C., ~0.5 μm-deep, 100 nm-diameter TNAs on polyimide) | relationship between nanotube diameter and release rate (nanotube diameters within the 30 nm-100 nm range) | difference in release data between the two drug loading methods (normal pipetting vs soaking) | SMILES
no indication of a large burst | several weeks | linear | nearly one month | – | – | – | Oc1ccc(C=Cc2cc(O)cc(O)c2)cc1 [Resveratrol]
no indication of a large burst | – | linear | – | linear | weak relationship | No significant difference | C[C@@H]1C[C@H]2[C@@H]3CCC4=CC(=O)C=C[C@]4(C)[C@@]3(F)[C@@H](O)C[C@]2(C)[C@@]1(O)C(=O)COP(=O)(O)O [Dexamethasone, dexamethasone sodium phosphate]
